Laboratory results: patent US9802960B2 (MILLENNIUM PHARMACEUTICALS, INC., priority 2014, dated 2017)

Target: Human VPS34 (Homo sapiens (Human), UniProt Q8NEB9)
Experiment: Human VPS34 enzyme assay (Adapta TR-FRET)
Type: biochemical
Settings: compound concentration 1.11 μM

Sequence of Human VPS34 (Q8NEB9 whole entry): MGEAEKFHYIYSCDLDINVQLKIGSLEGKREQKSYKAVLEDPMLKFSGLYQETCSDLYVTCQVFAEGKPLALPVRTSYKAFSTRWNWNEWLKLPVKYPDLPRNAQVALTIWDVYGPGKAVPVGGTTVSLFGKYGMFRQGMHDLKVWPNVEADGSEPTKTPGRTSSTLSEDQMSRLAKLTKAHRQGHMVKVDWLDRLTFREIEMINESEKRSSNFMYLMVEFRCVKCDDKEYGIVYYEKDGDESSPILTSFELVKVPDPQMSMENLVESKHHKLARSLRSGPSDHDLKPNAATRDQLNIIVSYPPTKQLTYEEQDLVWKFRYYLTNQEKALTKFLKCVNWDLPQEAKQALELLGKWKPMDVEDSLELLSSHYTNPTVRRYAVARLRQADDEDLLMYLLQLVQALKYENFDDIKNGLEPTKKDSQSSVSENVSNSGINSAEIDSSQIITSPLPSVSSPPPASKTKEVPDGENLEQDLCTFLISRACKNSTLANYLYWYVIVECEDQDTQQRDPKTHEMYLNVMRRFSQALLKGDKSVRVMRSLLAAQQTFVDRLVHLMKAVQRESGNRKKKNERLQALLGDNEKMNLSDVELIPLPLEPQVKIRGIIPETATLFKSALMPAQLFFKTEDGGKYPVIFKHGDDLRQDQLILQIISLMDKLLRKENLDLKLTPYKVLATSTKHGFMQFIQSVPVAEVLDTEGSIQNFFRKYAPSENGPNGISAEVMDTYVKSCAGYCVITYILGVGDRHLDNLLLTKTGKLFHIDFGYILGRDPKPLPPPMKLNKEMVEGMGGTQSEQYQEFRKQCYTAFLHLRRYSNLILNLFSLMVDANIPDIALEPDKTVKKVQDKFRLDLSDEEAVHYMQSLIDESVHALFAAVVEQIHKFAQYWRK

Structure (SMILES)	Percent Inhibition
CC(=O)Nc1cc(-c2cnc(C)c(NS(=O)(=O)N3CC4CCC3C4)c2)ccn1 (stereo not drawn) [Compound I-445, N-{5-[(2-azabicyclo[2.2.1]hept-2-ylsulfonyl)amino]-6-methyl-3,4′-bipyridin-2′-yl}acetamide]	>99%

Same assay, conditions: compound concentration 1.11 μM; read-out: Percent Inhibition

Structure (SMILES)	inhibition at 1.11 µM
CC(=O)Nc1cc(-c2cnc(Cl)c(NS(=O)(=O)c3ccc(Br)cc3F)c2C)ccn1 [Compound I-444, N-(5-{[(4-bromo-2-fluorophenyl)sulfonyl]amino}-6-chloro-4-methyl-3,4′-bipyridin-2′-yl)acetamide]	> 99%
Cc1nccc(Nc2cc(-c3cnc(C)c(OC(C)C)c3)ccn2)n1 [Compound I-446, 5-isopropoxy-6-methyl-N-(2-methylpyrimidin-4-yl)-3,4′-bipyridin-2′-amine]	> 99%
CC(=O)Nc1cc(-c2cnc(C)c(NS(=O)(=O)N3CCOCC3)c2)ccn1 [Compound I-447, N-{6-methyl-5-[(morpholin-4-ylsulfonyl)amino]-3,4′-bipyridin-2′-yl}acetamide]	98%
CC(=O)Nc1cc(-c2cnc(Cl)c(N3CCCNS3(=O)=O)c2)ccn1 [Compound I-448, N-[6-chloro-5-(1,1-dioxido-1,2,6-thiadiazinan-2-yl)-3,4′-bipyridin-2′-yl]acetamide]	87%
CNc1ncc(-c2ccnc(NC(C)=O)c2)cc1C(=O)N(C)C12CC(C1)C2 [Compound I-449, 2′-acetamido-N-(bicyclo[1.1.1]pent-1-yl)-N-methyl-6-(methylamino)-3,4′-bipyridine-5-carboxamide]	94%
CC(=O)Nc1cc(-c2ccnc(Nc3ccnc(C)n3)c2)cn2nccc12 [Compound I-450, N-(6-{2-[(2-methylpyrimidin-4-34)amino]pyridin-4-yl}pyrazolo[1,5-a]pyridin-4-yl)acetamide]	87%
CC(=O)Nc1cc(-c2cncc(N3CCCN(C)S3(=O)=O)c2)ccn1 [Compound I-452, N-[5-(6-methyl-1,1-dioxido-1,2,6-thiadiazinan-2-yl)-3,4′-bipyridin-2′-yl]acetamide]	> 99%
Cc1nccc(Nc2cc(-c3c[n+]([O-])c(Cl)c(NS(=O)(=O)c4ccc(F)cc4F)c3C)ccn2)n1 [Compound I-454, N-(2-chloro-4-methyl-5-{2-[(2-methylpyrimidin-4-yl)amino]pyridin-4-yl}-1-oxidopyridin-3-yl)-2,4-difluorobenzenesulfonamide]	> 99%
CNS(=O)(=O)Nc1cc(-c2ccnc(NC(C)=O)c2)cnc1C [Compound I-455, N-{6-methyl-5-[(methylsulfamoyl)amino]-3,4′-bipyridin-2′-yl}acetamide]	> 99%
CCOC(=O)Nc1cc(-c2cnc(C)c(NS(=O)(=O)c3ccc(Cl)cc3F)c2)ccn1 [Compound I-456, ethyl (5-{[(4-chloro-2-fluorophenyl)sulfonyl]amino}-6-methyl-3,4′-bipyridin-2′-yl)carbamate]	> 99%
Cc1nccc(Nc2cc(-c3cnc(Cl)c(C(=O)N4CCC4)c3C)ccn2)n1 [Compound I-457, azetidin-1-yl{6-chloro-4-methyl-2′-[(2-methylpyrimidin-4-yl)amino]-3,4′-bipyridin-5-yl}methanone]	95%
CC(=O)Nc1cc(-c2cncc(N(C)S(=O)(=O)N(C)C)c2)ccn1 [Compound I-458, N-{5-[(dimethylsulfamoyl)(methyl)amino]-3,4′-bipyridin-2′-yl}acetamide]	> 99%
CC(=O)Nc1cc(-c2cncc(S(=O)(=O)Nc3ccccc3)c2)ccn1 [Compound I-459, N-[5-(phenylsulfamoyl)-3,4′-bipyridin-2′-yl]acetamide]	96%
CC(=O)Nc1cc(-c2cnc(C)c(N3CCCNC3=O)c2)ccn1 [Compound I-460, N-[6-methyl-5-(2-oxotetrahydropyrimidin-1 (2H)-yl)-3,4′-bipyridin-2′-yl]acetamide]	60%
CC(=O)Nc1cc(-c2cncc(S(=O)(=O)NC(C)(C)C)c2C)ccn1 [Compound I-462, N-(5-(N-(tert-butyl)sulfamoyl)-4-methyl-[3,4′-bipyridin]-2′-yl)acetamide]	98%
CC(=O)Nc1cc(-c2cnc(C)c(NS(=O)(=O)c3c(Cl)cccc3Cl)c2)ccn1 [Compound I-463, N-(5-{[(2,6-dichlorophenyl)sulfonyl]amino}-6-methyl-3,4′-bipyridin-2′-yl)acetamide]	> 99%
CC(=O)Nc1cc(-c2cncc(S(=O)(=O)Nc3ccc(F)cc3F)c2)ccn1 [Compound I-464, N-{5-[(2,4-difluorophenyl)sulfamoyl]-3,4′-bipyridin-2′-yl}acetamide]	> 99%
CC(=O)Nc1cc(-c2cnc(C)c(NS(=O)(=O)c3cc(Cl)sc3Cl)c2)ccn1 [Compound I-465, N-(5-{[(2,5-dichloro-3-thienyl)sulfonyl]amino}-6-methyl-3,4′-bipyridin-2′-yl)acetamide]	97%
Cc1c(-c2ccnc(Nc3ccnc(C4CC4)n3)c2)cnc(Cl)c1C(=O)N1CC(C)(C)C1 [Compound I-466, {6-chloro-2′-[(2-cyclopropylpyrimidin-4-yl)amino]-4-methyl-3,4′-bipyridin-5-yl}(3,3-dimethylazetidin-1-yl)methanone]	92%

Structure (SMILES)	inhibition at 1.11 µM
CC(=O)Nc1cc(-c2cnc(Cl)c(N3CCCN(C)S3(=O)=O)c2)ccn1 [Compound I-467, N-[6-chloro-5-(6-methyl-1,1-dioxido-1,2,6-thiadiazinan-2-yl)-3,4′-bipyridin-2′-yl]acetamide]	> 99%
CC(=O)Nc1cc(-c2cncc(S(=O)(=O)NC34CC5CC(CC(C5)C3)C4)c2)ccn1 [Compound I-468, N-[5-(adamantan-1-ylsulfamoyl)-3,4′-bipyridin-2′-yl]acetamide]	> 99%
CCc1c(-c2ccnc(NC(C)=O)c2)cnc(Cl)c1NS(=O)(=O)c1ccc(F)cc1F [Compound I-469, N-(6-chloro-5-{[(2,4-difluorophenyl)sulfonyl]amino}-4-ethyl-3,4′-bipyridin-2′-yl)acetamide]	> 99%
COc1ncc(-c2ccnc(NC(C)=O)c2)cc1S(=O)(=O)NC12CC(C1)C2 [Compound I-470, N-[5-(bicyclo[1.1.1]pent-1-ylsulfamoyl)-6-methoxy-3,4′-bipyridin-2′-yl]acetamide]	> 99%
Cc1nccc(Nc2cc(-c3cnc(C)c(OC4CCCC4)c3)ccn2)n1 [Compound I-471, 5-(cyclopentyloxy)-6-methyl-N-(2-methylpyrimidin-4-yl)-3,4′-bipyridin-2′-amine]	98%
CC(=O)Nc1cc(-c2cncc(Nc3ncco3)c2)ccn1 [Compound I-472, N-[5-(1,3-oxazol-2-ylamino)-3,4′-bipyridin-2′-yl]acetamide]	96%
CC(=O)Nc1cc(-c2cnc(Cl)c(N3CCCNS3(=O)=O)c2C)ccn1 [Compound I-473, N-[6-chloro-5-(1,1-dioxido-1,2,6-thiadiazinan-2-yl)-4-methyl-3,4′-bipyridin-2′-yl]acetamide]	87%
CC(=O)Nc1cc(-c2cncc(S(=O)(=O)N3CCC3)c2)ccn1 [Compound I-474, N-[5-(azetidin-1-ylsulfonyl)-3,4′-bipyridin-2′-yl]acetamide]	89%
Cc1nccc(Nc2cc(-c3cnc(C)c(Oc4ccccc4)c3)ccn2)n1 [Compound I-475, 6-methyl-N-(2-methylpyrimidin-4-yl)-5-phenoxy-3,4′-bipyridin-2′-amine]	> 99%
CC(=O)Nc1cc(-c2cc(NS(=O)(=O)N(C)C)c3ccnn3c2)ccn1 [Compound I-476, N-(4-{4-[(dimethylsulfamoyl)amino]pyrazolo[1,5-a]pyridin-6-yl}pyridin-2-yl)acetamide]	87%
CC(=O)Nc1cc(-c2cnc(Cl)c(NS(=O)(=O)N3CC4CCC3C4)c2C)ccn1 (stereo not drawn) [Compound I-477, N-{5-[(2-azabicyclo[2.2.1]hept-2-ylsulfonyl)amino]-6-chloro-4-methyl-3,4′-bipyridin-2′-yl}acetamide]	93%
CC(=O)Nc1cc(-c2cnc(C)c(OS(=O)(=O)c3ccc(F)cc3F)c2)ccn1 [Compound I-478, 2′-acetamido-6-methyl-3,4′-bipyridin-5-yl 2,4-difluorobenzenesulfonate]	84%
CCOc1cc(-c2ccnc(Nc3ccnc(C)n3)c2)cnc1C [Compound I-479, 5-ethoxy-6-methyl-N-(2-methylpyrimidin-4-yl)-3,4′-bipyridin-2′-amine]	98%
Cc1nccc(Nc2cc(-c3cc(N)c4ccnn4c3)ccn2)n1 [Compound I-480, 6-{2-[(2-methylpyrimidin-4-yl)amino]pyridin-4-yl}pyrazolo[1,5-a]pyridin-4-amine]	99%
CC(=O)Nc1cc(-c2cncc(S(=O)(=O)N3CCN(C)CC3)c2)ccn1 [Compound I-481, N-{5-[(4-methylpiperazin-1-yl)sulfonyl]-3,4′-bipyridin-2′-yl}acetamide]	> 99%
Cc1nccc(Nc2cc(-c3cnc(C)c(NC(=O)N4CC(F)(F)C4)c3)ccn2)n1 [Compound I-482, 3,3-difluoro-N-{6-methyl-2′-[(2-methylpyrimidin-4-yl)amino]-3,4′-bipyridin-5-yl}azetidine-1-carboxamide]	> 99%
CC(=O)Nc1cc(-c2cnc(C)c(NS(=O)(=O)N3CCC(C)(C)CC3)c2)ccn1 [Compound I-483, N-(5-{[(4,4-dimethylpiperidin-1-yl)sulfonyl]amino}-6-methyl-3,4′-bipyridin-2′-yl)acetamide]	> 99%
CC(=O)Nc1cc(-c2cnc3c(c2)S(=O)(=O)NCCO3)ccn1 [Compound I-484, N-(4-(1,1-dioxido-3,4-dihydro-2H-pyrido[2,3-b][1,4,5]oxathiazepin-8-yl)pyridin-2-yl)acetamide]	92%
CC(=O)Nc1cc(-c2cnc(C)c(C(=O)N(C)c3ccc(F)cc3F)c2)ccn1 [Compound I-485, 2′-acetamido-N-(2,4-difluorophenyl)-N,6-dimethyl-3,4′-bipyridine-5-carboxamide]	100%
